Literature values, collected in PMC2737817 (Bioorganic & medicinal chemistry letters, 2009).

How the values were obtained:
[1] = system: MVD; settings: read-out: Functional Bioactivity MVD (IC50); ± S.E.M.; ref [42]; SEM
[2] = system: GPI/LMMP; settings: read-out: Functional Bioactivity GPI (IC50); ± S.E.M.; ref [42]; SEM

Tyr-Pro-Trp-Phe-NH2 [EM-1]
IC50 [1]: 1710 ± 110 nM | IC50 [2]: 28 ± 3 nM

Tyr-Pro-Phe-Phe-NH2 [EM-2]
IC50 [2]: 15 ± 2 nM
